Data taken from US20260035339A1, “TETRAHYDRONAPHTHALENE DERIVATIVE” (ATRANSEN PHARMA LTD., priority 2022, published 2026).

Key:
[1] = test system: Human breast cancer cells MCF7; test: BNCT-enhancing effect by L-BPA confinement using cultured cells (colony formation after neutron irradiation); type: cell-based; settings: MCF7 loaded with 100 μM L-[10B]BPA, then 10 μM compound for 60 minutes; neutron rays 5 MW for 4 minutes
Method: Human breast cancer cells MCF7 were plate-cultured in an RPMI medium for 48 hours, then replaced with an RPMI medium containing 100 μM of L-[10B]BPA, and cultured for 15 minutes to allow the L-[10B]BPA to be taken up in the cells. After washing with HBSS, the cells were cultured in an RPMI medium for 60 minutes, and after further washing with HBSS, the cells were peeled off and stored in HBSS at room temperature for 1.5 hours ((−) in FIG. 3A). L-BPA was taken up in the cells, washed with HBSS and then cultured in an RPMI medium containing the compound of Example 1-1 (10 μM) obtained in the present invention for 60 minutes, and after further washing with HBSS, the cells were peeled off and stored in HBSS at room temperature for 1.5 hours ((+) in FIG. 3A). The cells were cultured in an RPMI medium containing no L-[10B]BPA for 15 minutes, and after washing with HBSS, the cells were peeled off and stored in HBSS at room temperature for 1.5 hours ((No BPA Hot control) in FIG. 3A). These three cell samples were irradiated with neutron rays (5 MW for 4 minutes). After irradiation, in order to measure viable cells, the cells were plate-cultured and the number of colonies generated after 2 weeks was measured. The number of viable cells was evaluated as surviving fraction (%) (FIG. 3A).

human LAT1 = human LAT1 (Homo sapiens, UniProt Q01650); test: [14C]L-leucine uptake inhibition test using human-LAT1 stably expressing HEK293 cell line; type: cell-based; design: having full-length cDNA of human LAT1 or LAT2 inserted under a promoter of CMV; expressed in transfected cells; key to Assay Data: degree of [14C]L-leucine uptake inhibition compared with BCH: a test compound having a higher inhibitory effect than BCH is denoted by A; a test compound having the same inhibitory effect as BCH is denoted by B; a test compound having a lower inhibitory effect than BCH is denoted by C
Chain of human LAT1 (Q01650 whole entry): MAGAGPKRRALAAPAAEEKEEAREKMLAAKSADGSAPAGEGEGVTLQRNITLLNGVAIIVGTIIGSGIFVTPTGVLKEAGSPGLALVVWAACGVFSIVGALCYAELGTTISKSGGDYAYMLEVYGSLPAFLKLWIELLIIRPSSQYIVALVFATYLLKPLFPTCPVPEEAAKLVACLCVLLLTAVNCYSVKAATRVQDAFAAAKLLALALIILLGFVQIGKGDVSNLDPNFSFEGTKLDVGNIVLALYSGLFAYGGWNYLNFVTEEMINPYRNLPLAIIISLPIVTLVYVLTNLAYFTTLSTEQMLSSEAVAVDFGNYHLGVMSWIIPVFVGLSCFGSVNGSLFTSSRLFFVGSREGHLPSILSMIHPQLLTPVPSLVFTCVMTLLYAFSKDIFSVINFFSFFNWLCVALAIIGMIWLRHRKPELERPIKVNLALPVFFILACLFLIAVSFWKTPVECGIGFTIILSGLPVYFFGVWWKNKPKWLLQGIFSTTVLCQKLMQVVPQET
Chain of human LAT1 (P08195 102-630 partner): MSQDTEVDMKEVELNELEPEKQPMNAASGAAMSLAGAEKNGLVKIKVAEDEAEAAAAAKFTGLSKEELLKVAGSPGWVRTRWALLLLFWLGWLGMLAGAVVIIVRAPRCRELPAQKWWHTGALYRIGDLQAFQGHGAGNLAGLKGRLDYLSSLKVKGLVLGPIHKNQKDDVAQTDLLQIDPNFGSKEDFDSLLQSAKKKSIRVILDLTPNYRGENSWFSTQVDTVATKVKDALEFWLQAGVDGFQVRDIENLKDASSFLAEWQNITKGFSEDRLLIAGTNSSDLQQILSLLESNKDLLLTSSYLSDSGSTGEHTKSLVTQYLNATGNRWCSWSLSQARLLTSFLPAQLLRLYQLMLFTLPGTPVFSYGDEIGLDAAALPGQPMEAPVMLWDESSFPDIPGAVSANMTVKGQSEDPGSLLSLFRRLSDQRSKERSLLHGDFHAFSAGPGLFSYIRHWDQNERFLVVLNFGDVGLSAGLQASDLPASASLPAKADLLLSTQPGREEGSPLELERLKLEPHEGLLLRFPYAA
In short: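 HEK293 cells stably expressing human LAT1, preincubated 10 min in Na^+-free HBSS, then exposed 1 min to 1 μM [14C]L-leucine with racemic compound (0.1, 1.0, 10, 0 μM). Lysate radioactivity counted by scintillation and normalized to protein as uptake per mg protein per minute; graded against BCH.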

NC1(C(=O)O)CCc2ccc(Oc3ccc4ccccc4c3)cc2C1 (centres unmarked) [Example 1-1, 2-carboxy-7-(naphthalene-2-yloxy)-1,2,3,4-tetrahydronaphthalene-2-aminium chloride]
BNCT-enhancing effect (surviving fraction after neutron irradiation) [1]: large BNCT-enhancing effect
suppression rate of labeled leucine uptake (human LAT1; 0.1 μM of the compound (racemic form)): about 70%
Assay Data: degree of [14C]L-leucine uptake inhibition compared with BCH (human LAT1; compound (racemic form) and BCH at 0.1, 1.0, 10 μM, 1 μM [14C]L-leucine, 1 minute, Na+-free HBSS): A
IC50 (human LAT1; racemic form, 1 μM [14C]L-leucine, 1 minute, read-out: 50% suppression concentration (racemic form), [14C]L-leucine uptake): ≤ 100 nM
LAT1 inhibitory effect, compounds singled out (in words) (human LAT1; same test as Table 1): particularly remarkable effects
